Assay results published in patent publication US10253002B2, “Compounds and methods of treating infections” (Neoculi Pty Ltd., priority 2013, dated 2019).
≈ marks a conversion by molar mass, not a printed value. Where two headings read alike, the source gives them in different places.

Tested on: MRSA
Test: Broth microdilution MIC, Example 7 (NCL812 and analogues)
Assay type: cell-based, Staphylococcus aureus
How it was run: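 Duplicates per isolate, repeated a third time if >one two-fold dilution apart. MIC50, MIC20 and range calculated per bacterial group.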

[1] = Staphylococcus aureus, MRSA, MRSA 616, Phase I, 1st, read-out: MIC
[2] = Staphylococcus aureus, MRSA, MRSA 718, Phase I, 2nd, read-out: MIC
[3] = Staphylococcus aureus, MRSA, MRSA 747, Phase I, 1st, read-out: MIC

N=C(N/N=C/c1ccc(Cl)cc1)N/N=C/c1ccc(Cl)cc1 [NCL812, 1,3-bis[(E)-(4-chlorophenyl)methyleneamino]guanidine]
MIC [1]: 8 µg/mL (≈ 23.9 µM) | MIC [2]: 8 µg/mL (≈ 23.9 µM) | MIC [3]: 8 µg/mL (≈ 23.9 µM) | MIC (Staphylococcus aureus, MRSA, bioassay ranking, MRSA, read-out: MRSA): 3 µg/mL (≈ 8.98 µM) | MIC (μg/ml) at 24 hours, MRSA 2 (isolate MRSA 2, 24 hours, 1st and 2nd replicate rows): 2 µg/mL (≈ 5.98 µM)

CC1(C)S[C@@H]2[C@H](NC(=O)[C@H](N)c3ccccc3)C(=O)N2[C@H]1C(=O)O [Ampicillin]
MIC (MRSA 610, Phase I, 2nd): 128 µg/mL (≈ 366 µM) | MIC (MRSA 713, Phase II, 1st): 128 µg/mL (≈ 366 µM) | MIC (MRSA 713, Phase II, 2nd): 128 µg/mL (≈ 366 µM) | MIC (MRSA 778, Phase II, 1st): 128 µg/mL (≈ 366 µM) | MIC (MRSA 778, Phase II, 2nd): 128 µg/mL (≈ 366 µM) | MIC (MRSA 823, Phase II, 1st): 128 µg/mL (≈ 366 µM) | MIC (MRSA 823, Phase II, 2nd): 128 µg/mL (≈ 366 µM) | MIC (MRSA 844, Phase I, 1st): 128 µg/mL (≈ 366 µM) | MIC (MRSA 844, Phase I, 2nd): 128 µg/mL (≈ 366 µM) | MIC (Staphylococcus aureus, MRSA, 24 h, read-out: MIC (μg/ml) at 24 hours, MRSA 1, isolate MRSA 1, 24 hours, 1st and 2nd replicate rows): > 128 µg/mL | MIC (Staphylococcus aureus, MRSA, 24 h, read-out: MIC (μg/ml) at 24 hours, MRSA 2, isolate MRSA 2, 24 hours, 1st and 2nd replicate rows): 16 µg/mL (≈ 45.8 µM) | MIC (Staphylococcus aureus, MRSA, MRSA 516, Phase I, 1st, read-out: MIC): 32 µg/mL (≈ 91.6 µM) | MIC (Staphylococcus aureus, MRSA, MRSA 516, Phase I, 2nd, read-out: MIC): 32 µg/mL (≈ 91.6 µM) | MIC (Staphylococcus aureus, MRSA, MRSA 516, Phase II, 1st, read-out: MIC): 32 µg/mL (≈ 91.6 µM) | MIC (Staphylococcus aureus, MRSA, MRSA 516, Phase II, 2nd, read-out: MIC): 16 µg/mL (≈ 45.8 µM) | MIC (Staphylococcus aureus, MRSA, MRSA 570, Phase I, 1st, read-out: MIC): > 128 µg/mL | MIC (Staphylococcus aureus, MRSA, MRSA 570, Phase I, 2nd, read-out: MIC): > 128 µg/mL | MIC (Staphylococcus aureus, MRSA, MRSA 570, Phase II, 1st, read-out: MIC): > 128 µg/mL | MIC (Staphylococcus aureus, MRSA, MRSA 570, Phase II, 2nd, read-out: MIC): > 128 µg/mL | MIC (Staphylococcus aureus, MRSA, MRSA 580, Phase I, 1st, read-out: MIC): > 128 µg/mL | MIC (Staphylococcus aureus, MRSA, MRSA 580, Phase I, 2nd, read-out: MIC): > 128 µg/mL | MIC (Staphylococcus aureus, MRSA, MRSA 580, Phase II, 1st, read-out: MIC): > 128 µg/mL | MIC (Staphylococcus aureus, MRSA, MRSA 580, Phase II, 2nd, read-out: MIC): > 128 µg/mL | MIC (Staphylococcus aureus, MRSA, MRSA 606, Phase I, 1st, read-out: MIC): 32 µg/mL (≈ 91.6 µM) | MIC (Staphylococcus aureus, MRSA, MRSA 606, Phase I, 2nd, read-out: MIC): 32 µg/mL (≈ 91.6 µM) | MIC (Staphylococcus aureus, MRSA, MRSA 606, Phase II, 1st, read-out: MIC): 32 µg/mL (≈ 91.6 µM) | MIC (Staphylococcus aureus, MRSA, MRSA 606, Phase II, 2nd, read-out: MIC): 32 µg/mL (≈ 91.6 µM) | MIC (Staphylococcus aureus, MRSA, MRSA 610, Phase II, 1st, read-out: MIC): 32 µg/mL (≈ 91.6 µM) | MIC (Staphylococcus aureus, MRSA, MRSA 610, Phase II, 2nd, read-out: MIC): 32 µg/mL (≈ 91.6 µM) | MIC [1]: 64 µg/mL (≈ 183 µM) | MIC (Staphylococcus aureus, MRSA, MRSA 616, Phase I, 2nd, read-out: MIC): 64 µg/mL (≈ 183 µM) | MIC (Staphylococcus aureus, MRSA, MRSA 616, Phase II, 1st, read-out: MIC): 64 µg/mL (≈ 183 µM) | MIC (Staphylococcus aureus, MRSA, MRSA 616, Phase II, 2nd, read-out: MIC): 64 µg/mL (≈ 183 µM) | MIC (Staphylococcus aureus, MRSA, MRSA 622, Phase I, 1st, read-out: MIC): 64 µg/mL (≈ 183 µM) | MIC (Staphylococcus aureus, MRSA, MRSA 622, Phase I, 2nd, read-out: MIC): 64 µg/mL (≈ 183 µM) | MIC (Staphylococcus aureus, MRSA, MRSA 622, Phase II, 1st, read-out: MIC): 32 µg/mL (≈ 91.6 µM) | MIC (Staphylococcus aureus, MRSA, MRSA 622, Phase II, 2nd, read-out: MIC): 32 µg/mL (≈ 91.6 µM) | MIC (Staphylococcus aureus, MRSA, MRSA 698, Phase I, 1st, read-out: MIC): 64 µg/mL (≈ 183 µM) | MIC (Staphylococcus aureus, MRSA, MRSA 698, Phase I, 2nd, read-out: MIC): 64 µg/mL (≈ 183 µM) | MIC (Staphylococcus aureus, MRSA, MRSA 698, Phase II, 1st, read-out: MIC): 8 µg/mL (≈ 22.9 µM) | MIC (Staphylococcus aureus, MRSA, MRSA 698, Phase II, 2nd, read-out: MIC): 8 µg/mL (≈ 22.9 µM) | MIC (Staphylococcus aureus, MRSA, MRSA 713, Phase I, 1st, read-out: MIC): > 128 µg/mL | MIC (Staphylococcus aureus, MRSA, MRSA 713, Phase I, 2nd, read-out: MIC): > 128 µg/mL | MIC (Staphylococcus aureus, MRSA, MRSA 718, Phase I, 1st, read-out: MIC): > 128 µg/mL | MIC [2]: > 128 µg/mL | MIC (Staphylococcus aureus, MRSA, MRSA 718, Phase II, 1st, read-out: MIC): 64 µg/mL (≈ 183 µM) | MIC (Staphylococcus aureus, MRSA, MRSA 718, Phase II, 2nd, read-out: MIC): 64 µg/mL (≈ 183 µM) | MIC (Staphylococcus aureus, MRSA, MRSA 728, Phase I, 1st, read-out: MIC): 64 µg/mL (≈ 183 µM) | MIC (Staphylococcus aureus, MRSA, MRSA 728, Phase I, 2nd, read-out: MIC): 64 µg/mL (≈ 183 µM) | MIC (Staphylococcus aureus, MRSA, MRSA 728, Phase II, 1st, read-out: MIC): 32 µg/mL (≈ 91.6 µM) | MIC (Staphylococcus aureus, MRSA, MRSA 728, Phase II, 2nd, read-out: MIC): 32 µg/mL (≈ 91.6 µM) | MIC (Staphylococcus aureus, MRSA, MRSA 734, Phase I, 1st, read-out: MIC): > 128 µg/mL | MIC (Staphylococcus aureus, MRSA, MRSA 734, Phase I, 2nd, read-out: MIC): > 128 µg/mL | MIC (Staphylococcus aureus, MRSA, MRSA 734, Phase II, 1st, read-out: MIC): 64 µg/mL (≈ 183 µM) | MIC (Staphylococcus aureus, MRSA, MRSA 734, Phase II, 2nd, read-out: MIC): 64 µg/mL (≈ 183 µM) | MIC (Staphylococcus aureus, MRSA, MRSA 741, Phase I, 1st, read-out: MIC): 8 µg/mL (≈ 22.9 µM) | MIC (Staphylococcus aureus, MRSA, MRSA 741, Phase I, 2nd, read-out: MIC): 8 µg/mL (≈ 22.9 µM) | MIC (Staphylococcus aureus, MRSA, MRSA 741, Phase II, 1st, read-out: MIC): 4 µg/mL (≈ 11.4 µM) | MIC (Staphylococcus aureus, MRSA, MRSA 741, Phase II, 2nd, read-out: MIC): 4 µg/mL (≈ 11.4 µM) | MIC [3]: > 128 µg/mL | MIC (Staphylococcus aureus, MRSA, MRSA 747, Phase I, 2nd, read-out: MIC): > 128 µg/mL | MIC (Staphylococcus aureus, MRSA, MRSA 747, Phase II, 1st, read-out: MIC): 64 µg/mL (≈ 183 µM) | MIC (Staphylococcus aureus, MRSA, MRSA 747, Phase II, 2nd, read-out: MIC): 64 µg/mL (≈ 183 µM) | MIC (Staphylococcus aureus, MRSA, MRSA 773, Phase I, 1st, read-out: MIC): 64 µg/mL (≈ 183 µM) | MIC (Staphylococcus aureus, MRSA, MRSA 773, Phase I, 2nd, read-out: MIC): 64 µg/mL (≈ 183 µM) | MIC (Staphylococcus aureus, MRSA, MRSA 773, Phase II, 1st, read-out: MIC): 64 µg/mL (≈ 183 µM) | MIC (Staphylococcus aureus, MRSA, MRSA 773, Phase II, 2nd, read-out: MIC): 64 µg/mL (≈ 183 µM) | MIC (Staphylococcus aureus, MRSA, MRSA 778, Phase I, 1st, read-out: MIC): > 128 µg/mL | MIC (Staphylococcus aureus, MRSA, MRSA 778, Phase I, 2nd, read-out: MIC): > 128 µg/mL | MIC (Staphylococcus aureus, MRSA, MRSA 786, Phase I, 1st, read-out: MIC): 32 µg/mL (≈ 91.6 µM) | MIC (Staphylococcus aureus, MRSA, MRSA 786, Phase I, 2nd, read-out: MIC): 32 µg/mL (≈ 91.6 µM) | MIC (Staphylococcus aureus, MRSA, MRSA 786, Phase II, 1st, read-out: MIC): 32 µg/mL (≈ 91.6 µM) | MIC (Staphylococcus aureus, MRSA, MRSA 786, Phase II, 2nd, read-out: MIC): 32 µg/mL (≈ 91.6 µM) | MIC (Staphylococcus aureus, MRSA, MRSA 787, Phase I, 1st, read-out: MIC): > 128 µg/mL | MIC (Staphylococcus aureus, MRSA, MRSA 787, Phase I, 2nd, read-out: MIC): > 128 µg/mL | MIC (Staphylococcus aureus, MRSA, MRSA 787, Phase II, 1st, read-out: MIC): 64 µg/mL (≈ 183 µM) | MIC (Staphylococcus aureus, MRSA, MRSA 787, Phase II, 2nd, read-out: MIC): 64 µg/mL (≈ 183 µM) | MIC (Staphylococcus aureus, MRSA, MRSA 815, Phase I, 1st, read-out: MIC): 64 µg/mL (≈ 183 µM) | MIC (Staphylococcus aureus, MRSA, MRSA 815, Phase I, 2nd, read-out: MIC): 64 µg/mL (≈ 183 µM) | MIC (Staphylococcus aureus, MRSA, MRSA 815, Phase II, 1st, read-out: MIC): 32 µg/mL (≈ 91.6 µM) | MIC (Staphylococcus aureus, MRSA, MRSA 815, Phase II, 2nd, read-out: MIC): 32 µg/mL (≈ 91.6 µM) | MIC (Staphylococcus aureus, MRSA, MRSA 823, Phase I, 1st, read-out: MIC): > 128 µg/mL | MIC (Staphylococcus aureus, MRSA, MRSA 823, Phase I, 2nd, read-out: MIC): > 128 µg/mL | MIC (Staphylococcus aureus, MRSA, MRSA 844, Phase II, 1st, read-out: MIC): 64 µg/mL (≈ 183 µM) | MIC (Staphylococcus aureus, MRSA, MRSA 844, Phase II, 2nd, read-out: MIC): 32 µg/mL (≈ 91.6 µM)
